# Data: patent US6599501B1, “Immunomodulators” (Steeno Research Group A/S, priority 1994, dated 2003)
# Tests used:
# Assay type in all cases: cell-based
# [1] = tested on: spontaneous IL-8 production by human monocytes; experiment: Spontaneous IL-8 production by purified cultured human monocytes (IL-8 ELISA); conditions: any concentration of IT9302 between 0.1 and 1000 ng/ml; this and following examples
# [2] = tested on: IL-4 production by cultured normal human CD4+ T cells; experiment: IL-4 production by CD4+ T lymphocytes (ECL-Western blotting); conditions: 100 ng/ml, 3 days, cytosolic fractions
# Description: CD4+ T lymphocytes were purified from heparinized normal human blood. Following Lymphoprep™ (Nycomed Pharma, Oslo, Norway) gradient centrifugation, the mononuclear cells were further sorted at 4° C. using Dynabeads (Dynal AS, Norway) coated with monoclonal anti-CD4 antibodies. The beads were detached by adding polyclonal anti-mouse antibody (Dynal AS, Norway). The purity of the positively selected cells were higher than 99% as judged by FACS analysis. […]
# Cells or freeze-dried cell culture supernatants were used for IL-4 protein content determination. […] The blots were then incubated with a polyclonal goat anti-human IL-4 antibody (R&D Systems, UK) followed by a horseradish peroxidase-labelled secondary antibody (Cat.no. RPN 2106 ECL, Amersham, UK), and the immunostaining was detected by exposing a film (Kodak X-OMAT-S, USA) for 90 seconds.
# Thus, CD4+ T cells, purified as described in “Methods for T cell chemotaxis”, and cultured as described in the section “Determination of IL-4 production by CD4+ T lymphocytes”, were stimulated for 3 days with IT9302 (10 ng/ml) or IL-10 (100 ng/ml). Cytosolic fractions were collected and analyzed for their IL-4 content using Western blotting (FIG. 11) and a goat anti-human IL-4 polyclonal antibody.
# [3] = tested on: class II MHC molecule expression on human monocytes; experiment: Class II MHC antigen expression on monocytes (rosetting with HLA class II Dynabeads)
# Description: PBMC was purified as described above and monocytes isolated by plastic adherence technique. Monocytes were then cultured in RPMI 1640 with 2% FCS including penicillin 10,000 IE/ml, streptomycin 10 mg/ml, gentamycin 2.5 mg/ml at a cell concentration of 3×10^6/ml. Cells were stimulated for 40 hours in microwells (Nunc, Denmark) with 100 ng/ml rhIL-10, or IT9302 1 μg/ml, 100 ng/ml, 10 ng/ml. At the end of stimulation, the supernatants were removed and the cells were detached from the plastic by freezing at −20° C. for 20 minutes. The cells were collected in 1 ml of cold HBSS with 1% FCS and sorted at 20° C. by using 50 μl/ml Dynabeads M 450 coated with monoclonal antibody for HLA class II β chain (Cat. No. 210.03). After 20 minutes of incubation, the cells were washed 3 times with cold HBSS with 1% FCS and collected on a magnetic separation device. The cells were diluted in the above buffer and stained with methylene blue, and the resetting cells (cells carrying Dynabeads with HLA class II mAb) were counted.
# [4] = tested on: IRAP production by human monocytes; experiment: Production of interleukin-1 receptor antagonist protein (IRAP) by human monocytes (IRAP ELISA); conditions: monocytes stimulated 24 hours
# Description: PBMC was purified as described above. PBMC was cultured in RMPI 1640, 10% sterile heat-inactivated fetal calf serum (including penicillin 10,000 IE/ml, streptomycin 10 mg/ml, gentamycin 2.5 mg/ml) and the cell concentration was 5×10^6 cells/ml. The monocytes were then purified by standard plastic adherence technique. Monocytes were then cultured in RPMI 1640 with 2% FCS (2.5×10^6 cells/ml) and with different dilutions of rhIL-10 or IT9302. The cells were stimulated for 24 hours and the supernatants were collected for IRAP determination. IRAP ELISA was carried out by using Human IL-1ra Quantikin Immunoassay Kit from R&D Systems Europe Ltd. (Cat.No. DRA 00, Abingdon, Oxon, UK).
# The test was performed as described in “Determination of IRAP concentration”.
# [5] = tested on: IL-1β induced IL-8 production by human peripheral blood mononuclear cells (PBMC); experiment: IL-1β induced IL-8 production by human peripheral blood mononuclear cells (IL-8 ELISA); conditions: r-hIL-1β 1 ng/ml; 48 hours total incubation
# Description: PBMC was purified from heparinized blood of normal human donors. Following gradient centrifugation with-Lymphoprep™ (Nycomed Pharma, Oslo, Norway), the mononuclear cells were diluted to 2×10^6 cells/ml in LPS-free RPMI 1640 medium (Gibco Cat.No. 6187-010) containing 1% sterile filtered heat-inactivated fetal calf serum and penicillin (10,000 IE/ml), streptomycin (10 mg/ml) and gentamycin (2.5 mg/ml). Cells were cultured in 24 wells Nunc Micro Plates (Nunc, Denmark) and in the presence of different concentration of IT9302 (0, 1 μg, 100 ng, 10 ng, 1 ng, 0.1 ng, 0.01 ng/ml) for 24 hours. Following 24 hours of incubation, another dose of IT9302 was added once more, and 1 hour later r-hIL-1β (1 ng/ml) was added to the cell cultures. Supernatants were collected after a total of 48 hours of incubation, and the concentration of the secreted IL-8 was measured by IL-8 ELISA by using an IL-8 ELISA Kit (Dainippon Pharmaceutical Co. Ltd, Osaka, Japan). Briefly, standards and cell supernatants were incubated for one hour and in duplicates at 20° C. on a micro-plate shaker. Then after washing, a second antibody was added for one hour, followed by one hour of incubation with peroxidase-labelled goat anti-rabbit IgG. […] Optical density (OD) was measured in an ELISA reader at 490 nm. IL-8 concentration was calculated by a calibration curve of absorbance of unknown vs concentrations of IL-8 standards. […]
substance,measurement,setting,value
"H-AYMTMKIRN-OH [IT9302, NH2-Ala-Tyr-Met-Thr-Met-Lys-Ile-Arg-Asn-COOH]",effect on viability of cells,[1],did not in this or in the following examples affect viability
rhIL-10: Recombinant human interleukin 10 obtained from Pepro Tech Inc.,production of IL-4 by CD4+ T cells,[2],induce the production of IL-4
same,inhibition of class II MHC expression,[3]; 40 hours stimulation,inhibits class II MHC expression
same,Number of rosetting monocytes,"[3]; stimulation 100 ng/ml, 40 hours",4.6 ± 1.4 × 10^4
same,induction of IRAP production,[4],induction of IRAP
"NH2-Ser-Pro-Gly-Gln-Gly-Thr-Gln-Ser-Glu-COOH (H-SPGQGTQSE-OH) [IT9301, nonapeptide from the N-terminal end of hIL-10, control for negative results]",inhibition of IL-1β induced production of IL-8,[5],did not induce any inhibition at all
